{
  "source": "patent US8983257B2",
  "about": "“Therapeutic light delivery apparatus, method, and system” (Nomir Medical Technologies, Inc., priority 2002, dated 2015)",
  "assay_type_in_all_cases": "cell-based, Staphylococcus aureus",
  "key": {"MRSA [1]": {"test_system": "MRSA", "experiment": "MRSA/antimicrobial potentiation Experiment 1: CFU with or without 30 μg/ml methicillin, laser dosages A1 to H1", "conditions": "for fewer CFU in the laser treated samples compared to the untreated controls: methicillin plates (30 μg/ml)", "experimental": "Four separate experiments have been performed.\nEight different laser dosages were used to treat a saline-suspension of logarithmically growing MRSA, labeled A1 to H1.\n(§1) The treated and a control untreated suspension were diluted and plated in triplicate on trypic soy agar with or without 30 μg/ml methicillin.\n(§2) After 24 hrs of growth at 37° C. colonies were counted.\nCFU (colony forming units) were compared between the plates with and without methicillin for both control (untreated) and treated MRSA."}, "MRSA [2]": {"test_system": "MRSA", "experiment": "MRSA/antimicrobial potentiation Experiment 3: CFU with or without 30 μg/ml methicillin, laser dosages A3 to H3", "conditions": "for Fold increase in methicillin sensitivity: 30 μg/ml methicillin", "experimental": "Eight different laser dosages based on an effective dose established in experiments 1 and 2 and previously were used to treat a saline-suspension of logarithmically growing MRSA, labeled A3 to H3.\n[…] After 24 hrs of growth at 37° C. colonies were counted."}, "MRSA [3]": {"test_system": "MRSA", "experiment": "MRSA/antimicrobial potentiation Experiment 2: CFU with or without 30 μg/ml methicillin, laser dosages A2 to H2", "conditions": "for Fold increase in methicillin sensitivity: 30 μg/ml methicillin", "experimental": "Eight different laser dosages based on an effective dose established in experiment 1 and previously were used to treat a saline-suspension of logarithmically growing MRSA, labeled A2 to H2.\nas §1, §2"}, "MRSA [4]": {"test_system": "MRSA", "experiment": "MRSA/antimicrobial potentiation Experiment 4: CFU with or without methicillin, penicillin G or erythromycin, groups A4 to F4", "conditions": "for CFU: agar with 30 μg/ml methicillin", "text": "Two different laser dosages based on an effective dose established in previous experiments were used to treat a saline-suspension of logarithmically growing MRSA, labeled A4 to F4."}, "MRSA [5]": {"test_system": "MRSA", "experiment": "MRSA CFU count with methicillin after sub-lethal NIMELS laser (Example X)", "conditions": "methicillin at resistant MIC just below effectiveness level", "excerpt": "The following illustrates the general antibacterial methods according to the invention, using a MRSA model for the in vitro Experiments V and VIII-XII.\na) μ1 is sub-lethal dosimetry from the NIMEL laser system on MRSA as a control and;"}},
  "note": "Where “and” joins values, the source holds several entries; their conditions need not be identical. Equal values may be shown once. Entries after “also recorded” stand apart in the source; their conditions may differ.",
  "data": [
    {"smiles": "COc1cccc(OC)c1C(=O)N[C@@H]1C(=O)N2[C@@H]1SC(C)(C)[C@@H]2C(=O)O", "note": "[Methicillin]", "values": [
      {"measurement": "AVG (CFU)", "setting": "MRSA [1]; Exp (laser treated), laser dosage F1, with 30 μg/ml methicillin", "value": 197, "unit": "CFU"},
      {"measurement": "fewer CFU in the laser treated samples compared to the untreated controls", "setting": "MRSA [1]; condition A1", "value": 30, "unit": "%"},
      {"measurement": "fewer CFU in the laser treated samples compared to the untreated controls", "setting": "MRSA [1]; condition B1", "value": 33, "unit": "%"},
      {"measurement": "fewer CFU in the laser treated samples compared to the untreated controls", "setting": "MRSA [1]; condition C1", "value": 67, "unit": "%"},
      {"measurement": "sensitization of MRSA by laser treatment (in words)", "setting": "MRSA [1]; treatments performed on sample A1, B1 and C1", "value": "sensitized the MRSA to the effects of methicillin"},
      {"measurement": "CFU AVG", "setting": "MRSA [2]; B3, Exp (laser treated), plates with 30 μg/ml methicillin", "value": 19},
      {"measurement": "effectiveness of methicillin in laser treated samples (in words)", "setting": "MRSA [2]; CFU on plates with and without 30 μg/ml methicillin, groups A3 to H3", "value": "significant increase in the effectiveness of methicillin in all laser treated samples"},
      {"measurement": "CFU", "setting": "MRSA [2]; D3, Cont (untreated suspension), plates with 30 μg/ml methicillin, single plates", "value": 58},
      {"measurement": "CFU AVG", "setting": "MRSA [2]; D3, Exp (laser treated), plates with 30 μg/ml methicillin", "value": 3.6},
      {"measurement": "CFU AVG", "setting": "MRSA [2]; F3, Exp (laser treated), plates with 30 μg/ml methicillin", "value": 9.8},
      {"measurement": "CFU AVG", "setting": "MRSA [2]; G3, Exp (laser treated), plates with 30 μg/ml methicillin", "value": 8.4},
      {"measurement": "CFU AVG", "setting": "MRSA [2]; H3, Exp (laser treated), plates with 30 μg/ml methicillin", "value": 8.4},
      {"measurement": "Fold increase in methicillin sensitivity", "setting": "MRSA [2]; laser dosage grouping A3", "value": 1.98},
      {"measurement": "Fold increase in methicillin sensitivity", "setting": "MRSA [2]; laser dosage grouping B3", "value": 1.62},
      {"measurement": "Fold increase in methicillin sensitivity", "setting": "MRSA [2]; laser dosage grouping C3", "value": 1.91},
      {"measurement": "Fold increase in methicillin sensitivity", "setting": "MRSA [2]; laser dosage grouping D3", "value": 2.59},
      {"measurement": "Fold increase in methicillin sensitivity", "setting": "MRSA [2]; laser dosage grouping E3", "value": 2.09},
      {"measurement": "Fold increase in methicillin sensitivity", "setting": "MRSA [2]; laser dosage grouping F3", "value": 2.08},
      {"measurement": "Fold increase in methicillin sensitivity", "setting": "MRSA [2]; laser dosage grouping G3", "value": 3.16},
      {"measurement": "Fold increase in methicillin sensitivity", "setting": "MRSA [2]; laser dosage grouping H3", "value": 2.97},
      {"measurement": "CFU AVG", "setting": "MRSA [3]; A2, Exp (laser treated), plates with 30 μg/ml methicillin", "value": 41},
      {"measurement": "effectiveness of methicillin in laser treated samples (in words)", "setting": "MRSA [3]; CFU on plates with and without 30 μg/ml methicillin, groups A2 to H2", "value": "significant increase in the effectiveness of methicillin in all laser treated samples with the exception of A2 and B2"},
      {"measurement": "CFU AVG", "setting": "MRSA [3]; D2, Cont (untreated suspension), plates with 30 μg/ml methicillin", "value": 52},
      {"measurement": "CFU AVG", "setting": "MRSA [3]; D2, Exp (laser treated), plates with 30 μg/ml methicillin", "value": 2.3},
      {"measurement": "CFU AVG", "setting": "MRSA [3]; E2, Exp (laser treated), plates with 30 μg/ml methicillin", "value": 2.7},
      {"measurement": "CFU AVG", "setting": "MRSA [3]; F2, Cont (untreated suspension), plates with 30 μg/ml methicillin", "value": 71},
      {"measurement": "CFU AVG", "setting": "MRSA [3]; G2, Exp (laser treated), plates with 30 μg/ml methicillin", "value": 8.3},
      {"measurement": "CFU", "setting": "MRSA [3]; H2, Cont (untreated suspension), plates with 30 μg/ml methicillin, single plates", "value": 82},
      {"measurement": "Fold increase in methicillin sensitivity", "setting": "MRSA [3]; laser dosage grouping A2", "value": 0.84},
      {"measurement": "Fold increase in methicillin sensitivity", "setting": "MRSA [3]; laser dosage grouping B2", "value": 0.91},
      {"measurement": "Fold increase in methicillin sensitivity", "setting": "MRSA [3]; laser dosage grouping C2", "value": 3.20},
      {"measurement": "Fold increase in methicillin sensitivity", "setting": "MRSA [3]; laser dosage grouping D2", "value": 2.44},
      {"measurement": "Fold increase in methicillin sensitivity", "setting": "MRSA [3]; laser dosage grouping E2", "value": 4.33},
      {"measurement": "Fold increase in methicillin sensitivity", "setting": "MRSA [3]; laser dosage grouping F2", "value": 2.13},
      {"measurement": "Fold increase in methicillin sensitivity", "setting": "MRSA [3]; laser dosage grouping G2", "value": 3.47},
      {"measurement": "Fold increase in methicillin sensitivity", "setting": "MRSA [3]; laser dosage grouping H2", "value": 1.62},
      {"measurement": "CFU", "setting": "MRSA [4]; Group A4, Cont (no laser), replicate plates 1-5, 24 hrs 37° C.", "value": "97 CFU and 90 CFU"},
      {"measurement": "CFU", "setting": "MRSA [4]; Group A4, Exp (laser treated), replicate plates 1-5", "value": "37 CFU and 33 CFU and 36 CFU (2×) and 39 CFU"},
      {"measurement": "CFU", "setting": "MRSA [4]; Group B4, Exp (laser treated), replicate plates 1-5", "value": "46 CFU (2×) and 34 CFU and 42 CFU and 44 CFU"},
      {"measurement": "synergy or potentiation with NIMELS in growth inhibition of MRSA colonies (in words)", "setting": "MRSA [4]; sub-lethal NIMELS dosimetry, bar chart figure", "value": "synergistic effects; also recorded: potentiated by sub-lethal NIMELS dosimetry"},
      {"measurement": "reversal of MRSA resistance in vitro by dual wavelength NOVEON laser (in words)", "setting": "MRSA [4]; temperature levels not lethal to the organism", "value": "successful reversal of MRSA resistance"},
      {"measurement": "effect of methicillin after sub-lethal NIMELS irradiation on growth of MRSA colonies (in words)", "setting": "MRSA [5]", "value": "potentiated by sub-lethal NIMELS dosimetry; also recorded: produces a deleterious effect after sub-lethal NIMEL irradiation on normal growth of MRSA colonies"}
    ]}
  ]
}
